Data reported in US8637679B2, “Process for the isolation of organic compounds useful for the treatment of cancer” (Council of Scientific and Industrial Research, priority 2011, dated 2014).
Where “and” joins values, the source holds several entries; their conditions need not be identical. Identical values can stand only once. Entries after “also recorded” stand apart in the source; their conditions may differ. Like-named read-outs stand apart in the source and are kept apart here.

Columns and labels:
[1] = target: Hsp90β (Homo sapiens, UniProt P08238); assay: γ-ATP sepharose binding assay, Hsp90β; details: mahanine at 50 and 100 μM
Chain of Hsp90β (P08238 whole entry): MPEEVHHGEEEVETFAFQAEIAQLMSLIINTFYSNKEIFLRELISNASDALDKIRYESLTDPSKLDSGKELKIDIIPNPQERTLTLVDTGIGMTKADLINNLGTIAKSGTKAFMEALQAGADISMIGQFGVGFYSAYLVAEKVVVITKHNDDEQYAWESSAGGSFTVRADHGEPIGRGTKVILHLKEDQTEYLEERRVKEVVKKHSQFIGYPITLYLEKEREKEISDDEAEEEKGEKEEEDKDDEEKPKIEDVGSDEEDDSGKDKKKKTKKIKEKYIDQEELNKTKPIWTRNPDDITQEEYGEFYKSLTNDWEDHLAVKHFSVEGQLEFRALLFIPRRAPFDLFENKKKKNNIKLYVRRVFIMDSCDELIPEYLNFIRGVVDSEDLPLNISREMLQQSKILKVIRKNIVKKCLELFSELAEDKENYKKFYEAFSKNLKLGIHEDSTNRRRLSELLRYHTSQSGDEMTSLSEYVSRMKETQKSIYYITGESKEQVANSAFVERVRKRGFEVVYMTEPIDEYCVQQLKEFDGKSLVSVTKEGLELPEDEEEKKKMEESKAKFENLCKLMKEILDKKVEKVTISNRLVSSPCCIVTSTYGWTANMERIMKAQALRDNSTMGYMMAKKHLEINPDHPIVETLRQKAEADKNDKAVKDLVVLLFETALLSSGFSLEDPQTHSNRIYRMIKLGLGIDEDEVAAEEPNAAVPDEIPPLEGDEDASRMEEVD
Description: (§1) 5 μg of purified Hsp90α and Hsp90β were pre-incubated separately on ice with 200 μL incubation buffer (10 mM Tris-Hcl, 50 mM KCl, 5 mM MgCl2, 2 mM DTT, 20 mM Na2MoO4, 0.01% NP40, pH 7.5) containing mahanine or 17-AAG and incubated for 30 mins on ice. After the incubation, 25 μL pre-equilibrated γ-phosphate ATP sepharose added and again incubated at 37° C. with frequent agitation.
(§2) Sepharose subsequently washed and analyzed by SDS-PAGE. Then the blot was probed with anti Hsp90 antibody and developed by ECL.

[2] = target: Hsp90α (Homo sapiens, UniProt P07900); assay: γ-ATP sepharose binding assay, Hsp90α; details: mahanine at 50 and 100 μM
Description: as §1, §2

[3] = test system: HeLa; assay: 7-AAD flow cytometric apoptosis, HeLa; assay type: cell-based, human
Description: (§5) U87MG, LN229, HeLa, SiHa and ME180 (1×10^6 cells) cells were cultured in 6-well plates in presence or absence of Mahanine (25 μM) for 24 hrs. Cells were washed in PBS, incubated with 7-Aminoactinomycin D (7-AAD) at 4° C. for 20 min and processed. Data acquisition was done on a FACSCalibur flow cytometer (BD) at excitation wavelength at 488 nm and emission wavelength at 647 nm and analyzed with CellQuestPro software.

[4] = test system: A172; assay: MTT cell viability assay, A172; assay type: cell-based, human; details: A172, 48 hrs
Description: (§3) Human cervical cancer cell lines (HeLa, ME-180 and SiHa), brain tumor cell lines (U87MG, U373MG, U87MG EGFRvIII, T98G, A172 and LN229), lymphoid leukemia (MOLT-3, MOLT-4, REH and CEMC-7), myloid leukemia (K562), pancreatic cancer (MIAPaCa-2, AsPC-1, Panc-1 and Panc 10.05), lung cancer (A549) and colon cancer (HCT116 and SW480) cell lines from American Type Culture Collection, Manassas, Va., USA were grown in IMDM or RPMI (cell specific) Medium supplemented with 10% fetal bovine serum and 1% antibiotic-antimycotic. Cells were cultured in 37° C. in an atmosphere of 5% CO2.
(§4) Viability of cancer cell lines after treatment as at the indicated times was determined by MTT assay. Briefly, 10,000 cells were plated in triplicate in 96 well plates and incubated for 24 and 48 hours in complete media in presence of varying dose of mahanine (0-50 μM). 100 ug MTT was added in each well. Incubate the plate for 1-4 hours at 37° C. and humidified 5% CO2 atmosphere. Absorbance was recorded at 550 nm with 96 well plate readers.

[5] = test system: U373MG; assay: MTT cell viability assay, U373MG; assay type: cell-based, human; details: 48 hrs
Description: as §3, §4

[6] = test system: Panc10.05; assay: MTT cell viability assay, Panc10.05; assay type: cell-based, human; details: Panc10.05, 48 hrs
Description: as §3, §4

[7] = test system: NCIH23; assay: MTT cell viability assay, NCIH23; assay type: cell-based, human; details: NCIH23, 48 hrs
Description: as §4

[8] = test system: Vero; assay: MTT cell viability assay, Vero normal cells; assay type: cell-based, African monkey; details: Vero normal cell line, 48 hrs
[9] = In vivo bioavailability after oral feeding; parameters: species or system Balb/c mice; details: mouse, in vivo, po
Description: EtOAc extract of Murraya koenigii was orally feeded to normal healthy Balb/c (100 mg/kg body weight) and blood was collected from retro orbital plexus after 30 min interval by glass capillary. Control blood was collected from the mice before the […] of extract. The Institutional Animal Ethical Committee had approved the study. Blood serum was isolated and the serum protein was separated by centrifugation in ice-cold acetone. Supernatant was evaporated to dryness and residual part was dissolved in minimum volume of MeOH and injected into the HPLC column.

[10] = test system: AsPC1; assay: MTT cell viability assay, AsPC1; assay type: cell-based, human; details: AsPC1, 48 hrs
Description: as §3, §4

[11] = test system: HCT116; assay: MTT cell viability assay, HCT116; assay type: cell-based, human; details: HCT116, 48 hrs
Description: as §3, §4

[12] = test system: K562; assay: MTT cell viability assay, K562; assay type: cell-based, human; details: K562, 48 hrs
Description: as §3, §4

[13] = test system: Panc1; assay: MTT cell viability assay, Panc1; assay type: cell-based, human; details: Panc1, 48 hrs
Description: as §3, §4

[14] = test system: A549; assay: MTT cell viability assay, A549; assay type: cell-based, human; details: A549, 48 hrs
Description: as §3, §4

[15] = test system: cancer cell lines; assay: MTT assay, pooled cancer cell lines of several cancer types; assay type: cell-based, human; details: 48 hr
Description: as §3, §4

[16] = test system: REH; assay: MTT cell viability assay, REH; assay type: cell-based, human; details: 48 hrs
Description: as §3, §4

[17] = test system: LN229; assay: MTT cell viability assay, LN229; assay type: cell-based, human; details: LN229, 48 hrs
Description: as §3, §4

[18] = test system: Molt-4; assay: MTT cell viability assay, Molt-4; assay type: cell-based, human; details: Molt-4, 48 hrs
Description: as §3, §4

[19] = test system: SW480; assay: MTT cell viability assay, SW480; assay type: cell-based, human; details: SW480, 48 hrs
Description: as §3, §4

[20] = test system: T98G; assay: MTT cell viability assay, T98G; assay type: cell-based, human; details: 48 hrs
Description: as §3, §4

[21] = test system: Molt-3; assay: MTT cell viability assay, Molt-3; assay type: cell-based, human; details: Molt-3, 48 hrs
Description: as §3, §4

[22] = test system: U87MG; assay: MTT cell viability assay, U87MG; assay type: cell-based, human; details: 48 hrs
Description: as §3, §4

[23] = test system: HeLa; assay: MTT cell viability assay, HeLa; assay type: cell-based, human; details: 48 hrs
Description: as §3, §4

[24] = test system: MIAPaCa-2; assay: MTT cell viability assay, MIAPaCa-2; assay type: cell-based, human; details: MIAPaCa-2, 48 hrs
Description: as §3, §4

[25] = test system: CEM C7; assay: MTT cell viability assay, CEM C7; assay type: cell-based, human; details: CEM C7, 48 hrs
Description: as §3, §4

[26] = test system: glioma cells (U87MG, U373MG, LN229, A172 and T98G); assay: MTT assay, panel of glioma cell lines; assay type: cell-based, human; details: range over U87MG, 48 hr, read-out: IC50 values against different glioma cell lines
Description: as §3, §4

[27] = test system: glioma (T98G) and cervical (HeLa) cancer cells; assay: Comparative cytotoxicity of mahanine and analogs by MTT; assay type: cell-based, human; details: MTT
Description: as §3, §4

[28] = test system: ME180; assay: 7-AAD flow cytometric apoptosis, ME180; assay type: cell-based, human; details: ME180, paclitaxel 10 μM alone
Description: as §5

Compound: 17-allylamino, 17-demethoxygeldanamycin [17AAG, reference compound]
- effect on ATP binding to purified Hsp90 [1]: easily hindered the ATP binding
- effect on ATP binding to purified Hsp90 [2]: easily hindered the ATP binding

Compound: N.N.[Cl][Pt][Cl] [Cisplatin, cisplatin]
- apoptosis (7-AAD) ([3]; cisplatin 40 μM alone): ~7%

Compound: CC(C)=CCCC1(C)C=Cc2c(c(C)cc3c2[nH]c2ccccc23)O1 (stereo not shown) [Mahanimbine, mahanimbine]
- IC50 [4]: 38.4 ± 0.8 µM
- IC50 [5]: 41.2 ± 0.25 µM
- IC50 [6]: 38.2 ± 0.1 µM
- IC50 [7]: 31.8 ± 0.2 µM
- IC50 [8]: > 100 µM
- secondary metabolites in blood (mass spectroscopy) [9]: no production of secondary metabolites
- time to appearance in blood circulation after oral administration [9]: ≤ 30 min
- IC50 [10]: 31.75 ± 0.2 µM
- IC50 [11]: 33.5 ± 0.3 µM
- IC50 [12]: 25.1 ± 0.1 µM
- IC50 [13]: 32.8 ± 0.1 µM
- IC50 [14]: 37 ± 0.1 µM
- IC50 ([15]; range over glioma and cervical cancer cell lines, read-out: IC50, glioma and cervical cancer cells): 10 to 20 µM
- IC50 ([15]; range over leukemia, glioma, cervical, pancreatic, colon and lung cancer lines, MTT, read-out: IC50, cell lines of different cancer types): 20 to 45 µM and 30 to 50 µM
- IC50 [16]: 24.3 ± 0.7 µM
- IC50 [17]: 46.3 ± 0.1 µM
- IC50 [18]: 28 ± 0.2 µM
- IC50 [19]: 36.4 ± 0.5 µM
- IC50 [20]: 43.6 ± 0.2 µM
- IC50 [21]: 22.6 ± 0.6 µM
- IC50 [22]: 42.6 ± 0.4 µM
- IC50 [23]: 34.8 ± 0.1 µM
- IC50 ([23]; listed as Mahanimbin): 36 µM
- IC50 [24]: 35.2 ± 0.1 µM
- IC50 [25]: 27.4 ± 0.3 µM
- IC50 [26]: 38 to 47 µM

Compound: CC(C)=CCCC1(C)C=Cc2c(c(C)cc3c4ccccc4n(C)c23)O1 (stereo not shown) [N-methylated mahanimbine]
- cytotoxicity (activity in words) [27]: inactive; also recorded: more or less inactive

Compound: COc1ccc2c(c1)[nH]c1c3c(c(C)cc12)OC(C)(CCC=C(C)C)C=C3 (stereo not shown) [O-methylated mahanine]
- cytotoxicity (activity in words) [27]: inactive; also recorded: more or less inactive

Compound: CC(=O)O[C@H]1C(=O)[C@@]2(C)[C@H]([C@H](OC(=O)c3ccccc3)[C@]3(O)C[C@H](OC(=O)[C@H](O)[C@@H](NC(=O)c4ccccc4)c4ccccc4)C(C)=C1C3(C)C)[C@]1(OC(C)=O)CO[C@@H]1C[C@@H]2O [Paclitaxel, paclitaxel, reference compound]
- apoptosis (7-AAD) ([3]; paclitaxel 10 μM alone): 16.19%
- apoptosis (7-AAD) [28]: 18.21%

Compound: C20-C21 epoxy mahanine
- IC50 [16]: 18.4 ± 1.1 µM
